ChEMBL document CHEMBL1201862, “PubChem BioAssay data set” (2004)
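Protocol summary: plate cells (96-well), add compound at 5 concentrations, incubate 48 h, interpolate endpoints linearly. GI50 marks 50% less growth.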 Calls of active or inactive are those of the source. Rule as the data show it: active = GI50 up to about 1.1 µM and inactive = higher.

How the values were obtained:
Test in all cases: NCI-60 cell line screen, 48 h
CCRF-CEM = test system: CCRF-CEM
HCT-116 = test system: HCT-116
PC-3 = test system: PC-3
COLO 205 = test system: COLO 205
NCI-H226 = test system: NCI-H226
KM12 = test system: KM12
SN12C = test system: SN12C
RXF 393 = test system: RXF 393
NCI-H522 = test system: NCI-H522
MDA-MB-435 = test system: MDA-MB-435
K562 = test system: K562
SW-620 = test system: SW-620
SK-MEL-28 = test system: SK-MEL-28
A498 = test system: A498
SF-539 = test system: SF-539
HCC 2998 = test system: HCC 2998
HOP-62 = test system: HOP-62
A549 = test system: A549
LOX IMVI = test system: LOX IMVI
HCT-15 = test system: HCT-15
SNB-75 = test system: SNB-75
MCF7 = test system: MCF7
NCI-H23 = test system: NCI-H23
UACC-257 = test system: UACC-257
SF-295 = test system: SF-295
OVCAR-8 = test system: OVCAR-8
SK-MEL-2 = test system: SK-MEL-2
Hs-578T = test system: Hs-578T
SK-OV-3 = test system: SK-OV-3
EKVX = test system: EKVX
NCI/ADR-RES = test system: NCI/ADR-RES
SNB-19 = test system: SNB-19
Malme-3M = test system: Malme-3M
CAKI-1 = test system: CAKI-1
MOLT-4 = test system: MOLT-4
IGROV-1 = test system: IGROV-1
TK-10 = test system: TK-10
OVCAR-3 = test system: OVCAR-3
SK-MEL-5 = test system: SK-MEL-5
HT-29 = test system: HT-29
OVCAR-5 = test system: OVCAR-5
NCI-H460 = test system: NCI-H460
UO-31 = test system: UO-31
786-0 = test system: 786-0
HL-60 = test system: HL-60
ACHN = test system: ACHN
M14 = test system: M14
UACC-62 = test system: UACC-62
T47D = test system: T47D
DU-145 = test system: DU-145
U-251 = test system: U-251
SR = test system: SR
HOP-92 = test system: HOP-92
RPMI-8226 = test system: RPMI-8226
OVCAR-4 = test system: OVCAR-4
SF-268 = test system: SF-268
MDA-MB-231 = test system: MDA-MB-231

Measured: GI50

O=C1NCN(c2ccccc2)C12CCN(CCCSc1ccc(F)cc1)CC2
31.1 µM: HCT-15
inactive: CCRF-CEM 7 µM | HCT-116 5.09 µM | PC-3 47.2 µM | COLO 205 1.51 µM | NCI-H226 25.5 µM | KM12 30.2 µM | SN12C 21.4 µM | RXF 393 > 42 µM | NCI-H522 > 83.9 µM | MDA-MB-435 12.8 µM | K562 19.5 µM | SW-620 > 49.1 µM | SK-MEL-28 55.2 µM | A498 11.4 µM | SF-539 17.3 µM | HCC 2998 20.2 µM | HOP-62 25.5 µM | A549 33.1 µM | LOX IMVI 10.5 µM | SNB-75 3.72 µM | MCF7 5.3 µM | NCI-H23 27.7 µM | UACC-257 2.92 µM | SF-295 39 µM | OVCAR-8 > 100 µM | SK-MEL-2 15.1 µM | Hs-578T > 42.1 µM | SK-OV-3 > 100 µM | EKVX 28.2 µM | NCI/ADR-RES > 48 µM | SNB-19 97.3 µM | Malme-3M 21.2 µM | CAKI-1 > 51.5 µM | MOLT-4 12.2 µM | IGROV-1 9.1 µM | TK-10 24.2 µM | OVCAR-3 55.6 µM | SK-MEL-5 6.44 µM | HT-29 3.85 µM | OVCAR-5 16.9 µM | NCI-H460 13 µM | UO-31 48.5 µM | 786-0 24.3 µM | HL-60 21.8 µM | ACHN 19.7 µM | M14 6.25 µM | UACC-62 27.4 µM | T47D 28.6 µM | DU-145 11 µM | U-251 > 88.5 µM | SR 15.9 µM | HOP-92 9.71 µM | RPMI-8226 18.6 µM | OVCAR-4 13.8 µM | SF-268 28.8 µM | MDA-MB-231 5.52 µM
